Earlier results on two molecules are cited in patent publication US20210338713A1, “Reduction of Pulmonary Inflammation Using Therapeutic Gas Mixtures” (Brain Cancer Research Institute, priority 2020, published 2021).

The structures appear in SMILES notation.

One data set has as its system ovine model of ARDS. The note with it: inhalation, P<0.05.
The test system of data set [1] is pediatric patients with ARDS.
The test system of a further data set is RDS patients. The note with it: surviving patients, six months post-treatment, low-dose iNO.
For data set [2] the following is noted: in combination with oxygen.
For data set [3] the following is noted: in vivo.

With `[N]=O` [nitric oxide], the “arterial PO2” value in the data set on ovine model of ARDS is listed as “increase”. In addition, the “venous admixture (Qva/QT)” value in the data set on ovine model of ARDS (without altering cardiac output) is listed as “decrease”. The “pulmonary arterial pressure (PAP) and resistance” value in the data set with ovine model of ARDS (without any systemic hemodynamic effects) was “decrease”. Moreover, the “patients with improved oxygenation” value in data set [1] (inhaled) is on record as 15 of 17. Also, in data set [1] (inhaled, without changing systemic arterial pressure or pulmonary capillary wedge pressure), the “mean pulmonary artery pressure and intrapulmonary shunt” value is recorded as “lowered”. In addition, the “survival, patients with ARDS” value in data set [1] (low-dose inhaled NO (3 to 10 ppm) for 1 to 24 days, 5 of 10 patients) was 50%. In addition, the “survival, non-ARDS patients” value in data set [1] (low-dose inhaled NO (3 to 10 ppm) for 1 to 24 days, 7 of 7 patients) is 100%. For the same molecule, the “values for select pulmonary function tests versus placebo-treated patients” value with RDS patients is “significantly better”.

As to `[Xe]` [xenon], the “concentrations at which xenon exhibits anaesthetic effects” value in data set [2] is 10-70 vol. %. Also, in data set [3], the “toxic effects on main organs” value is reported as “does not induce significant toxic effects”.
